According to PMC4385927 (Cell Death & Disease, 2015):
Like-named read-outs stand apart in the source and are kept apart here.

Columns and labels:
[1] = test system: global protein synthesis rates; conditions: mouse; cited from earlier work
[2] = mouse, in vivo
[3] = test system: CHO cells expressing a luciferase reporter construct under control of the CHOP promoter; experiment: CHOP::luciferase assay; format: cell-based; conditions: 5 μg/ml tunicamycin 6 h; ISRIB 1 μM, GSK2606414 20 μM; n=9
Experimental: AR42j cells were cultured in DMEM supplemented with 10% Fetal calf serum (FetalClone II, Thermo Scientific, Loughborough, UK), 2 mM l-glutamine, 1 × Penicillin/Streptomycin and 1 × non-essential amino-acid solution and were maintained at 37 °C with 5% CO2. CHO-KI CHOP::luciferase cells were cultured in DMEM/F12(Ham) (Gibco, Paisley, UK) supplemented with 10% Fetal calf serum, 2 mM L-glutamine and 1 × Penicillin/Streptomycin, and were maintained at 37 °C with 5% CO2.
CHO::KI cells stably transfected with a CHOP::luciferase reporter[27] were plated at a density of 1 × 10^5 per well in a six-well plate and left to grow overnight. Cells were treated for 6 h with 5 μg/ml tunicamycin or vehicle only (100% DMSO) and then extracted using the Steady-Glo luciferase assay system (Promega) before being quantified using the Glomax 96 microplate luminometer (Promega). ISRIB and GSK2606414 were incubated with 5 μg/ml tunicamycin for 6 h at 1 or 20 μM, respectively, before assaying as above.

[4] = cited from earlier work
[5] = test system: AR42j rat pancreatic acinar cells; format: cell-based
total PrP and PrP^Sc = test system: total PrP and PrP^Sc; set-up: species or system mice; conditions: mouse, in vivo
[6] = test system: global protein synthesis rates; set-up: species or system mice; conditions: mouse, in vivo, ip, 0.25 mg/kg
[7] = test system: Rocky Mountain Laboratory (RML) prions; format: in vivo, mice
ATF4 = test system: ATF4; set-up: species or system mice; conditions: mouse, in vivo, ip, 0.25 mg/kg
Solubility (statement) = format: physicochemical
eIF2α-P = test system: eIF2α-P; set-up: species or system mice; conditions: mouse, in vivo, ip, 0.25 mg/kg
[8] = Plasma and brain concentration of trans-ISRIB by LC-MS/MS after single intraperitoneal injection; format: in vivo; conditions: wild-type mice; for Brain mean ±S.D. / Plasma mean ±S.D.: n=3
Experimental: We synthesized ISRIB as described,[22] and confirmed penetration of the blood–brain barrier and measured mean brain:plasma ratios at various doses in wild-type mice. Intra-peritoneal administration of 0.25 mg/kg of trans-ISRIB (henceforth termed simply ISRIB), as used by Sidrauski et al.[22] to enhance memory in mice, gave a favorable pharmacokinetic profile (Table 1), so this dose was used for treatment.
Blood and brain tissue were collected 8 or 24 h after dosing from mice treated with one doses of 0.25, 2.5 or 5 mg/kg trans-ISRIB, or vehicle. Blood plasma (up 0.2 ml, exact volume measured) was diluted with water to 0.2 ml and extracted with 0.4 ml of chloroform/methanol 2 : 1. After vortex mixing (10 min) and centrifugation (10 000 g, 10 min), the lower layer was dried with vacuum centrifugation and reconstituted in 50 μl of methanol. Brain tissue (one complete half, about 0.25 g weighed exactly) was homogenized in 0.5 ml of chloroform/methanol 2 : 1 and further processed exactly as the plasma samples. ISRIB quantitative analysis (using external standards) was performed by LC-MS/MS using a 4000 QTRAP mass spectrometer (Applied Biosystems, Foster City, CA, USA) equipped with a turbo ion source and LC series 10 AD VP (Shimadzu). The mobile phase was a water/acetonitrile gradient modified with 0.1% formic acid using a Agilent Poroshell 120 SB-C18 2.1 × 50 mm^2 (2.7 μm), which was maintained at 40 °C. LC-MS/MS multiple reaction monitoring used a precursor ion of mass/charge ratio (m/z) 452 and a product ion of m/z 265 in positive electrospray ionization mode for trans-ISRIB. Data analysis was performed with Analyst 1.4.1 in the quantitative mode.

[9] = prion-infected mice, ISRIB 0.25 mg/kg i.p. daily from 7 w.p.i., vehicle 9/9
[10] = single i.p. dose 0.25 mg/kg, 8 h
[11] = single i.p. dose 0.25 mg/kg, 24 h
[12] = single i.p. dose 2.5 mg/kg, 8 h
[13] = single i.p. dose 2.5 mg/kg, 24 h

Question: For `Cn1cc(-c2ccc3c(c2)CCN3C(=O)Cc2cccc(C(F)(F)F)c2)c2c(N)ncnc21` [GSK2606414, 7-methyl-5-(1-{[3-(trifluoromethyl)phenyl]acetyl}-2,3-dihydro-1H-indol-5-yl)-7H-p yrrolo[2,3-d]pyrimidin-4-amine], which “recovery of protein synthesis rates in vivo” value [1] is on record?
Answer: ~ 100%

Question: What about the “reduction in pancreatic weight” value ([2]; Tg37+/-, po, 50 mg/kg) of the same compound?
Answer: ~ 50%

Question: And the blood glucose levels [2]?
Answer: mildly but significantly elevated

Question: And the “pancreas histology (H&E sections)” value [2]?
Answer: extensive destruction of exocrine acinar pancreatic tissue

Question: And the “tunicamycin-induced CHOP induction (relative luminescence)” value [3]?
Answer: completely inhibited

Question: And the “toxicity of GSK2606414 treatment in prion-diseased mice” value [4]?
Answer: weight loss and mild hyperglycemia

Question: And the “protein synthesis (translation) rates restored in vitro, % of control levels” value ([5]; thapsigargin-treated AR42j cells, Figures 6a and b)?
Answer: 90%

Question: Which “levels of total PrP and PrP^Sc” value (total PrP and PrP^Sc) does the source give for `O=C(COc1ccc(Cl)cc1)N[C@H]1CC[C@H](NC(=O)COc2ccc(Cl)cc2)CC1` [ISRIB] here?
Answer: does not affect

Question: And the blood glucose levels [2]?
Answer: unaffected

Question: And the “loss of body weight at which animals had to be killed” value [2]?
Answer: 20%

Question: And the “pancreas histology (H&E sections)” value [2]?
Answer: histologically normal

Question: And the pancreatic weights [2]?
Answer: normal

Question: What about the “global protein synthesis rates, % of levels seen in uninfected controls” value [6] of the same compound?
Answer: ~ 70%

Question: What about the “tunicamycin-induced CHOP induction (relative luminescence)” value [3] of the same compound?
Answer: only partially reduced

Question: What about the “animals that developed confirmatory signs of prion disease by 12 w.p.i.” value ([7]; clinical observation, vehicle 9/9) of the same compound?
Answer: 0/12

Question: What about the “survival in prion-infected mice” value ([7]; n=12, vehicle 84±3 days (n=9), killed because of loss of 20% of body weight) of the same compound?
Answer: 96±4 days post infection

Question: And the “Confirmatory signs: Dragging of limbs (front/hind) (mice affected/total)” value ([7]; prion-infected mice, ISRIB 0.25 mg/kg i.p. daily from 7 w.p.i., vehicle 2/9)?
Answer: 0/12

Question: And the “Confirmatory signs: Sustained hunched posture (mice affected/total)” value ([7]; prion-infected mice, ISRIB 0.25 mg/kg i.p. daily from 7 w.p.i., vehicle 3/9)?
Answer: 0/12

Question: And the “Early indicator signs: Unsustained hunched posture (mice affected/total)” value ([7]; prion-infected mice, ISRIB 0.25 mg/kg i.p. daily from 7 w.p.i., vehicle 4/9)?
Answer: 0/12

Question: And the “Confirmatory signs: Impairment of righting reflex (mice affected/total)” value ([7]; prion-infected mice, ISRIB 0.25 mg/kg i.p. daily from 7 w.p.i., vehicle 5/9)?
Answer: 0/12

Question: And the “Early indicator signs: Hind limb clasping (mice affected/total)” value ([7]; prion-infected mice, ISRIB 0.25 mg/kg i.p. daily from 7 w.p.i., vehicle 8/9)?
Answer: 7/12

Question: What about the “Early indicator signs: Mild loss of coordination (mice affected/total)” value [7, 9] of the same compound?
Answer: 7/12

Question: What about the “Early indicator signs: Rigid tail (mice affected/total)” value [7, 9] of the same compound?
Answer: 7/12

Question: And the “Scrapie incubation: Number of animals succumbing to prion disease” value [7, 9]?
Answer: 0/12

Question: What about the “neuronal loss in the hippocampus (neuropathological examination, H&E)” value ([7]; prion-infected mice, ISRIB vs vehicle) of the same compound?
Answer: prevented neuronal loss

Question: What about the “levels of ATF4 (hippocampus)” value (ATF4) of the same compound?
Answer: reduced levels of ATF4 markedly

Question: What about the solubility (Solubility (statement)) of the same compound?
Answer: high insolubility

Question: What about the “eIF2α-P levels (hippocampus)” value (eIF2α-P) of the same compound?
Answer: unchanged

Question: And the “protein synthesis (translation) rates restored in vitro, % of control levels” value [5]?
Answer: ~ 50%

Question: What about the “Mean ratio brain: plasma” value [8, 10] of the same compound?
Answer: 0.54

Question: And the “Brain mean ±S.D.” value [8, 10]?
Answer: 186.9 ± 46.8 ng/g

Question: What about the “Plasma mean ±S.D.” value [8, 10] of the same compound?
Answer: 345.3 ± 44.7 ng/mL

Question: What about the “Mean ratio brain: plasma” value [8, 11] of the same compound?
Answer: 1.62

Question: And the “Brain mean ±S.D.” value [8, 11]?
Answer: 16.0 ± 1.6 ng/g

Question: And the “Plasma mean ±S.D.” value [8, 11]?
Answer: 9.9 ± 1.0 ng/mL

Question: And the “Mean ratio brain: plasma” value [8, 12]?
Answer: 0.35

Question: What about the “Brain mean ±S.D.” value [8, 12] of the same compound?
Answer: 254.6 ± 70.3 ng/g

Question: What about the “Plasma mean ±S.D.” value [8, 12] of the same compound?
Answer: 721.6 ± 60.1 ng/mL

Question: And the “Mean ratio brain: plasma” value [8, 13]?
Answer: 0.9

Question: And the “Brain mean ±S.D.” value [8, 13]?
Answer: 39.7 ± 12.6 ng/g

Question: And the “Plasma mean ±S.D.” value [8, 13]?
Answer: 44.1 ± 11.6 ng/mL

Question: And the “Mean ratio brain: plasma” value ([8]; single i.p. dose 5 mg/kg, 8 h)?
Answer: 0.43

Question: And the “Brain mean ±S.D.” value ([8]; single i.p. dose 5 mg/kg, 8 h)?
Answer: 160.3 ± 17.6 ng/g

Question: What about the “Plasma mean ±S.D.” value ([8]; single i.p. dose 5 mg/kg, 8 h) of the same compound?
Answer: 369.7 ± 114.4 ng/mL

Question: What about the “Mean ratio brain: plasma” value ([8]; single i.p. dose 5 mg/kg, 24 h) of the same compound?
Answer: 0.91

Question: And the “Brain mean ±S.D.” value ([8]; single i.p. dose 5 mg/kg, 24 h)?
Answer: 64.6 ± 9.2 ng/g

Question: And the “Plasma mean ±S.D.” value ([8]; single i.p. dose 5 mg/kg, 24 h)?
Answer: 70.9 ± 30.6 ng/mL
